Tests used:
[1] = tested on: outer hair cells (OHCs) of p3 murine organ of Corti explants; assay: Toxicity of HDAC inhibitors in murine cochlear explants (OHC loss by hair cell counts); type: cell-based, CBA/J mice; conditions: for loss of OHCs: 72 h; for concentration at which changes in orientation of stereociliary bundles of basal-turn OHCs begin / TD50 (median toxic dose, concentration leading to 50% OHC loss): 72 h incubation; for TD50 (median toxic dose, concentration leading to 50% OHC loss): p3 murine explants
Excerpt: (§1) The culture procedures have been described in detail (Chen et al., [2009]). In brief, postnatal day 3 (p3) CBA/J pups were euthanized after antisepsis using 70% ethanol. Inner ears were extracted from surrounding tissue and immersed in cold Hank’s balanced salt solution. The lateral wall tissues (stria vascularis and spiral ligament) and the auditory nerve bundle were micro-dissected from the organ of Corti. The explants were placed onto a prepared culture dish containing a 15-μL polymerized drop of rat tail collagen in 1 mL of culture medium consisting of Basal Medium Eagle, 1% serum-free supplement (Invitrogen, Carlsbad, CA, USA), 1% bovine serum albumin, 5 mg/mL glucose, and 10 U/mL penicillin G. After 4 h of incubation (37°C, 5% CO2), an additional 1 mL of medium was added to submerge the explants.
(§2) The medium was then exchanged for new medium containing a final concentration of 4.5 μM GM with or without various concentrations of the HDAC inhibitors and incubated for 72 h. The stock solutions with 95 mM of SAHA/vorinostat (Cayman Chemical, Ann Arbor, MI, USA), 100 mM of belinostat (Selleckchem, Houson, TX, USA), and 100 mM of panobinostat (Cayman Chemical), were dissolved in 100% dimethyl sulfoxide (DMSO) and stored at −20°C. GM solution was made fresh from powder in culture medium at 0.2 mM and then diluted to the final concentration for each experiment.
(§3) Explants were fixed with 4% paraformaldehyde overnight at 4°C and permeabilized for 30 min with 3% Triton X-100 in phosphate-buffered saline (PBS) at room temperature (22–24°C). The specimens were then washed three times with PBS and incubated with rhodamine-phalloidin (Invitrogen) at a 1:100 dilution for 60 min at room temperature (22–24°C). After rinsing in PBS, the specimens were mounted on a slide with Gel-Mount™ (BioMeda Corp., Foster City, CA, USA). The phalloidin-stained stereociliary bundles and circumferential F-actin rings on the cuticular plate of OHCs allowed the determination of cells that were present or missing. A clear “V” shape of stereocilia indicates the presence of OHCs. If the “V” shape is not visualized, we accept this as a damaged hair cells. Cell populations were assessed on a Leitz Orthoplan upright microscope equipped for epifluorescence, using a 50× oil-immersion objective. […] Each successive 0.19-mm field was evaluated for the absence of OHCs beginning from the apex and moving down the organ of Corti to the base. The percentage of OHC loss was calculated.
In order to evaluate the protective potential of the three HDAC inhibitors on aminoglycoside-induced ototoxicity, we first determined their safety on auditory sensory hair cells using p3 murine organ of Corti explants. Explants were incubated for 2 days for recovery from the stress of dissection, followed by 72 h of incubation with or without inhibitors. Toxic effects were assessed by OHC loss. […] OHCs in the basal turn show changes in the orientation of the stereociliary bundles beginning with concentrations of 4 μM for SAHA, 3 μM for belinostat, and 20 nM for panobinostat.

[2] = tested on: outer hair cells (OHCs) of p3 murine organ of Corti explants; assay: Protection against gentamicin-induced OHC loss in murine organ of Corti explants; type: cell-based, CBA/J mice; conditions: for concentration at which protection from GM-induced OHC loss begins / concentration that completely prevents GM-induced OHC loss / ED50 (median effective protective dose): 4.5 μM GM; for ED50 (median effective protective dose): 72 h co-incubation, p3 murine explants
Excerpt: as §1, §2, §3
After having established the safe concentration range for the HDAC inhibitors, we explored their efficacy as protective agents against GM-induced OHC loss. […] From the assessment of safe doses and the median effective (protective) doses (ED50) of the three HDAC inhibitors, we calculated the therapeutic index (TI = TD50/ED50) to be highest (safest) for belinostat and lowest for panobinostat (for detailed values see Table 2).

[3] = Guinea pig tolerability, serum platelet, BUN and creatinine levels; type: in vivo, guinea pigs; conditions: for BUN / Cr: in mg/dL (unit assumed)
Protocol: Pigmented male guinea pigs initially weighing 200–250 g from Charles River were used in the in-vivo study. Experiments were begun 1 week after the guinea pigs arrived. To select safe doses of SAHA for protective studies, we conducted two separate sets of experiments to assess serum platelet concentrations. In the first set, pigmented guinea pigs received daily IP injections of SAHA at lower doses (LD; 2 mg/kg and 5 mg/kg) concurrent with SQ injections of 120 mg GM base/kg body weight daily for 2 weeks. In the second study, the higher doses (HD) of SAHA (15 mg/kg and 25 mg/kg) were used. The DMSO concentration was 1.1 g/kg, equal to the DMSO concentration used for the 25 mg/kg concentration of SAHA. […] We then tested the protective ability of SAHA at LD (2 mg/kg and 5 mg/kg) and at HD of SAHA (15 mg/kg and 25 mg/kg) against GM-induced hearing loss concurrent with daily SQ injections of GM (dissolved in saline) at 120 mg base/kg for 14 days. SAHA was dissolved in 100% DMSO for stock solutions of 25 mg/mL and diluted with saline immediately before IP injections. All compound solutions were filtered with syringe filters before injection. Body weights were measured before each injection. If a guinea pig lost ~5% of its body weight, an additional 3–4 mL of saline was administrated subcutaneously.
Blood was obtained by nail clipping after light anesthesia of the guinea pigs by metofane inhalation after the last drug injections. Blood cells were separated by centrifugation at 1000× g for 15 min, and sera were stored at −20°C. Blood urea nitrogen (BUN), creatinine and platelet concentrations were determined using a Kodak Ektachem700XR Clinical Chemistry Analyzer (Clinical Products Division, Eastman Kodak, Rochester, NY, USA) and analyzed by Dr. Donald Giacherio, Chemical Pathology Laboratory, University of Michigan.
While the CBA/J mouse is a well-established model for chronic KM-induced ototoxicity, we wished to ascertain whether the lack of protection by SAHA might be species-dependent. We therefore tested if SAHA treatment had protective effects against GM-induced hearing loss in guinea pigs. To find safe doses to be used in guinea pigs in vivo, we first assessed serum platelet concentrations. Guinea pigs tolerated injections of SAHA at all concentrations of 5–25 mg/kg body weight concurrent with SQ injections of 120 mg GM base/kg body weight daily for 2 weeks with normal appearing fur and steadily increasing body weight. Blood samples were collected after the last injection.

CBA/J mice = assay: Kanamycin-induced hearing loss in CBA/J mice in vivo (ABR threshold shifts), chronic model; conditions: for auditory threshold shift (ABR), average: KM 700 mg base/kg SQ twice daily for 15 days
Protocol: Male CBA/J mice at the age of 5 weeks received subcutaneous (SQ) injections of KM at 700 mg base/kg (dissolved in saline) twice per day (AM and PM). SAHA for administration was dissolved in 100% DMSO for stock solutions of 50 mg/mL and diluted with saline immediately before intraperitoneal (IP) injection, for a final dose of 50 mg/kg, given twice per day for 15 days. The concentration of DMSO vehicle control was 1 mL/kg body weight. All solutions were filtered with a syringe filter before injection. Body weight was measured before each injection.
ABRs were measured 3 days before and 3 weeks after drug treatments. Animals were anesthetized with IP injections of ketamine (100 mg/kg) and xylazine (10 mg/kg) for mice or ketamine (58.8 mg/kg), xylazine (2.4 mg/kg), and acepromazine (1.2 mg/kg) for guinea pigs. Body temperature was maintained near 37°C with a heating pad. ABRs were measured at 12 and 32 kHz for guinea pigs or 8, 16, and 32 kHz for mice in a sound-isolated and electrically shielded booth (Acoustic Systems, Austin, TX, USA). Sub-dermal electrodes were inserted at the vertex of the skull, under the left ear and under the right ear (ground). Tucker Davis Technology System III hardware and SigGen/Biosig software were used to present the stimuli monaurally (15 ms duration tone bursts with 1 ms rise-fall time) through a Beyer earphone attached to a customized plastic speculum inserted into the ear canal. Up to 1024 responses were averaged for each stimulus level. Thresholds (the lowest stimulus level with a reproducible response) were determined by reducing the intensity in 10-dB steps and then in 5-dB steps approaching the threshold until no organized response was detected. Thresholds were evaluated based on ABR wave I. Scores were given by an expert blinded to experimental conditions between the highest stimulus level without a response and the lowest stimulus level where an organized response was observed. All ABR measurements were conducted by the same experimenter. […]

mice [4] = conditions: systemic SAHA, cited from earlier work
mice [5] = tested on: mice; set-up: method as in Layman et al., 2015; conditions: 100 mg/kg/day for 2 weeks, ref Layman et al., 2015; cited from earlier work
pigmented guinea pigs = assay: Gentamicin-induced ototoxicity in guinea pigs in vivo (ABR threshold shifts, OHC counts), chronic model; conditions: for effect on GM-induced auditory threshold shifts: SAHA IP LD 2–5 mg/kg or HD 15–25 mg/kg with GM 120 mg base/kg daily for 2 weeks
Protocol: Pigmented male guinea pigs initially weighing 200–250 g from Charles River were used in the in-vivo study. Experiments were begun 1 week after the guinea pigs arrived. To select safe doses of SAHA for protective studies, we conducted two separate sets of experiments to assess serum platelet concentrations. […] In the second study, the higher doses (HD) of SAHA (15 mg/kg and 25 mg/kg) were used. The DMSO concentration was 1.1 g/kg, equal to the DMSO concentration used for the 25 mg/kg concentration of SAHA. […] SAHA was dissolved in 100% DMSO for stock solutions of 25 mg/mL and diluted with saline immediately before IP injections. All compound solutions were filtered with syringe filters before injection. Body weights were measured before each injection. If a guinea pig lost ~5% of its body weight, an additional 3–4 mL of saline was administrated subcutaneously.
The procedures for surface preparations of guinea pig cochlear epithelia were followed as previously described (Sha and Schacht, [1999b]). After the last auditory brain stem response (ABR) measurement, guinea pigs from the second group of experiments were deeply anesthetized in a CO2 chamber and decapitated. Cochleae were immediately removed and perfused with 4% paraformaldehyde in PBS at pH 7.4 and fixed overnight at 4°C. Micro-dissected surface preparations of the organ of Corti were permeabilized for 30 min with 0.5% Triton X-100 in PBS at room temperature (22–24°C) and stained with rhodamine phalloidin (Invitrogen) at a 1:100 dilution for 60 min at room temperature (22–24°C). After rinsing in PBS, the specimens were mounted on a slide with Gel-Mount™ (BioMeda Corp.). OHC counts were conducted with microscopy as described above for mice.
ABRs were measured 3 days before and 3 weeks after drug treatments. Animals were anesthetized with IP injections of ketamine (100 mg/kg) and xylazine (10 mg/kg) for mice or ketamine (58.8 mg/kg), xylazine (2.4 mg/kg), and acepromazine (1.2 mg/kg) for guinea pigs. Body temperature was maintained near 37°C with a heating pad. ABRs were measured at 12 and 32 kHz for guinea pigs or 8, 16, and 32 kHz for mice in a sound-isolated and electrically shielded booth (Acoustic Systems, Austin, TX, USA). Sub-dermal electrodes were inserted at the vertex of the skull, under the left ear and under the right ear (ground). […] Thresholds (the lowest stimulus level with a reproducible response) were determined by reducing the intensity in 10-dB steps and then in 5-dB steps approaching the threshold until no organized response was detected. Thresholds were evaluated based on ABR wave I. Scores were given by an expert blinded to experimental conditions between the highest stimulus level without a response and the lowest stimulus level where an organized response was observed. […]

[6] = cited from earlier work
[7] = tested on: hair cells in organotypic cultures of the cochlea; set-up: method as in Chen et al., 2009; conditions: ref Chen et al., 2009; cited from earlier work
guinea pigs = tested on: guinea pigs; set-up: method as in Wang et al., 2015; conditions: locally applied to the middle ear; ref Wang et al., 2015; cited from earlier work
[8] = GM + SAHA (HD: 15–25 mg/kg), n=5
[9] = SAHA alone (LD + HD; LD 2–5 mg/kg, HD 15–25 mg/kg), n=2

O=C(/C=C/c1cccc(S(=O)(=O)Nc2ccccc2)c1)NO [belinostat]
loss of OHCs ([1]; 5 μM): 100% | concentration at which changes in orientation of stereociliary bundles of basal-turn OHCs begin [1]: 3000 nM | TD50 (median toxic dose, concentration leading to 50% OHC loss) [1]: 3.5 µM | concentration at which protection from GM-induced OHC loss begins ([2]; 72 h): 0.1 µM | concentration that completely prevents GM-induced OHC loss ([2]; 72 h): 0.4 µM | ED50 (median effective protective dose) [2]: 50 nM

O=C(CCCCCCC(=O)Nc1ccccc1)NO [SAHA, vorinostat]
loss of OHCs ([1]; 8 μM): 100% | concentration at which changes in orientation of stereociliary bundles of basal-turn OHCs begin [1]: 4000 nM | TD50 (median toxic dose, concentration leading to 50% OHC loss) [1]: 5.5 µM | BUN [3, 8]: 17 ± 3.2 | Cr [3, 8]: 0.4 ± 0.08 | BUN ([3]; GM + SAHA (LD: 2–5 mg/kg), n=6): 17 ± 1.7 | Cr ([3]; GM + SAHA (LD: 2–5 mg/kg), n=6): 0.4 ± 0.06 | platelet concentration compared to GM alone ([3]; SAHA 25 mg/kg IP daily with 120 mg GM base/kg SQ for 2 weeks): significantly lower | tolerability (fur appearance, body weight) ([3]; SAHA 5–25 mg/kg with 120 mg GM base/kg SQ daily for 2 weeks): tolerated | BUN [3, 9]: 17.5 ± 0.7 | Cr [3, 9]: 0.5 ± 0.007 | effect on KM-induced auditory threshold shifts (CBA/J mice; SAHA 50 mg/kg IP twice daily for 15 days with KM 700 mg base/kg twice daily): did not attenuate | effect on trauma of exposure to excessive noise (mice [4]; ref Chen et al., 2016): attenuated | effect on acute effects of the ototoxic combination of KM and furosemide (mice [4]; ref Layman et al., 2015): attenuated | concentration at which protection from GM-induced OHC loss begins ([2]; 72 h): 0.5 µM | concentration that completely prevents GM-induced OHC loss ([2]; 72 h): 2 µM | ED50 (median effective protective dose) [2]: 600 nM | ototoxicity (mice [5]): no ototoxicity | effect on GM-induced auditory threshold shifts (pigmented guinea pigs; 12 kHz): did not attenuate | effect on GM-induced auditory threshold shifts (pigmented guinea pigs; 32 kHz): did not attenuate | effect on GM-induced loss of OHCs (pigmented guinea pigs; SAHA IP with GM 120 mg base/kg daily for 2 weeks): did not attenuate | blood-brain barrier penetration ([6]; mouse model of Huntington’s disease, ref Hockly et al., 2003): crosses the blood-brain barrier | blood-labyrinth barrier / inner ear penetration ([6]; mouse, IP injection, ref Layman et al., 2015): crosses the blood-labyrinth barrier

CNC(C)C1CCC(N)C(OC2C(N)CC(N)C(OC3OCC(C)(O)C(NC)C3O)C2O)O1 (centres unmarked) [GM, gentamicin]
BUN ([3]; GM + DMSO, n=4): 16 ± 4.5 | Cr ([3]; GM + DMSO, n=4): 0.5 ± 0.22 | overall loss of OHCs ([2]; GM 4.5 μM with vehicle (DMSO) alone, 72 h, base-to-apex gradient): 40% | OHC loss in the basal turn (pigmented guinea pigs; GM 120 mg base/kg SQ daily for 2 weeks): significant OHC loss

Cc1[nH]c2ccccc2c1CCNCc1ccc(/C=C/C(=O)NO)cc1 [panobinostat]
loss of OHCs ([1]; 50 nM): 100% | concentration at which changes in orientation of stereociliary bundles of basal-turn OHCs begin [1]: 20 nM | TD50 (median toxic dose, concentration leading to 50% OHC loss) [1]: 0.035 µM | concentration at which protection from GM-induced OHC loss begins ([2]; 72 h): 0.005 µM | concentration that completely prevents GM-induced OHC loss ([2]; 72 h): 0.015 µM | ED50 (median effective protective dose) [2]: 9 nM

CC(/C=C/C(=O)NO)=C\[C@@H](C)C(=O)c1ccc(N(C)C)cc1 [trichostatin A]
effect on hair cells under GM-induced damage [7]: rescued hair cells

CCCC(=O)O [butyrate, sodium butyrate]
effect on hair cells under GM-induced damage [7]: rescued hair cells | protection of guinea pigs in vivo (guinea pigs): protected

NC[C@H]1O[C@H](O[C@H]2[C@H](O)[C@@H](O[C@H]3O[C@H](CO)[C@@H](O)[C@H](N)[C@H]3O)[C@H](N)C[C@@H]2N)[C@H](O)[C@@H](O)[C@@H]1O [KM, kanamycin]
auditory threshold shift (ABR), average (CBA/J mice; 16 kHz): 55 dB | auditory threshold shift (ABR), average (CBA/J mice; 32 kHz): 55 dB
